Data: ChEMBL document CHEMBL5244223, “l,8-Naphthalimide based DNA intercalators and anticancer agents. A systematic review from 2007 to 2017” (Eur J Med Chem, 2018)
In brackets after ≈: the same amount, converted by molar mass.

What was measured:
[1] = test system: HCT-116; experiment: Antiproliferative activity against human HCT-116 cells assessed as inhibition of cell proliferation incubated for 48 hrs by MTT assay; assay type: functional, cell-based; details: HCT-116, 48 h
[2] = test system: HepG2; experiment: Antiproliferative activity against human HepG2 cells assessed as inhibition of cell proliferation incubated for 48 hrs by MTT assay; assay type: functional, cell-based; details: HepG2, 48 h
[3] = test system: K562; experiment: Antiproliferative activity against human K562 cells assessed as inhibition of cell proliferation incubated for 48 hrs by MTT assay; assay type: functional, cell-based; details: K562, 48 h
[4] = test system: MDA-MB-231; experiment: Antiproliferative activity against human MDA-MB-231 cells assessed as inhibition of cell proliferation incubated for 48 hrs by MTT assay; assay type: functional, cell-based; details: MDA-MB-231, 48 h
[5] = test system: Mus musculus; experiment: Antitumor activity against mouse H22 cells xenografted in Kunming mouse assessed as decrease in tumor growth at 1 mg/kg administered as single injection via caudal vein for 7 consecutive days; assay type: functional; design: scale not given: the % may be the effect or the level left
[6] = test system: MCF7; experiment: Cytotoxicity against human MCF7 cells assessed as cell growth inhibition by MTT assay; assay type: functional, cell-based
[7] = test system: A549; experiment: Cytotoxicity against human A549 cells assessed as cell growth inhibition by MTT assay; assay type: functional, cell-based
[8] = test system: P388; experiment: Cytotoxicity against mouse P388 cells assessed as cell growth inhibition by MTT assay; assay type: functional, cell-based
[9] = test system: HeLa; experiment: Cytotoxicity against human HeLa cells assessed as cell growth inhibition by MTT assay; assay type: functional, cell-based
[10] = test system: HL-60; experiment: Cytotoxicity against human HL-60 cells assessed as cell growth inhibition by MTT assay; assay type: functional, cell-based
[11] = test system: A-375; experiment: Cytotoxicity against human A-375 cells assessed as cell growth inhibition by MTT assay; assay type: functional, cell-based
[12] = test system: HCT-8; experiment: Cytotoxicity against human HCT-8 cells assessed as cell growth inhibition by MTT assay; assay type: functional, cell-based
[13] = test system: COLO 205; experiment: Cytotoxicity against human COLO 205 cells assessed as inhibition of cell growth incubated for 72 hrs by SRB assay; assay type: functional, cell-based; details: COLO 205, 72 h, pooled result: one value given for 7 cell lines, strains, targets or settings
[14] = test system: Calf thymus DNA; experiment: Binding affinity to calf thymus DNA assessed as DNA intercalation by measuring change in melting temperature by thermal denaturation assay; assay type: nucleic-acid assay; details: Bos taurus
[15] = test system: Pseudomonas aeruginosa; experiment: Antibacterial activity against Pseudomonas aeruginosa MTCC 741 assessed as inhibition of bacterial growth by agar well diffusion assay; assay type: functional
[16] = test system: Staphylococcus epidermidis; experiment: Antibacterial activity against Staphylococcus epidermidis MTCC 435 assessed as inhibition of bacterial growth by agar well diffusion assay; assay type: functional
[17] = test system: Staphylococcus aureus; experiment: Antibacterial activity against Staphylococcus aureus MTCC 96 assessed as inhibition of bacterial growth by agar well diffusion assay; assay type: functional
[18] = test system: Escherichia coli; experiment: Antibacterial activity against Escherichia coli MTCC 443 assessed as inhibition of bacterial growth by agar well diffusion assay; assay type: functional
[19] = test system: Sarcoma-180; experiment: Inhibition of DNA synthesis in mouse Sarcoma-180 cells at 8 uM incubated for 30 mins by [3H]-thymidine incorporation based scintillation counter analysis; assay type: functional; details: Sarcoma-180, 0.5 h
[20] = test system: Sarcoma-180; experiment: Antitumor activity against mouse Sarcoma-180 cells xenografted in Swiss mouse assessed as T/C ratio at 0.5 mg/kg, po daily measured upto 7 days; assay type: functional; details: time <= 7 day
[21] = test system: Sarcoma-180; experiment: Inhibition of RNA synthesis in mouse Sarcoma-180 cells at 8 uM incubated for 60 mins by [3H]-uridine incorporation based scintillation counter analysis; assay type: functional; details: Sarcoma-180, 1 h

With `Cl.Cl.Cl.Cl.NCCCNCCCCNCCCNCC(=O)NCCCN1C(=O)c2cccc3cccc(c23)C1=O` the IC50 [1] was 2.86 µM, the IC50 [2] was 2.86 µM and the IC50 [3] was 2.86 µM. For the same compound, the IC50 [4] was 2.86 µM and the Activity [5] was 70.92%.

`COc1ccc2c(CC(=O)NCCN3C(=O)c4cccc5c(N(C)C)ccc(c45)C3=O)c(C)n(C(=O)c3ccc(Cl)cc3)c2c1` showed an IC50 [6] of 13.9 µM, an IC50 [7] of 13.9 µM and an IC50 [8] of 13.9 µM. The IC50 [9] was 13.9 µM, the IC50 [10] was 13.9 µM and the IC50 [11] was 13.9 µM. The IC50 [12] was 13.9 µM.

`O=C1c2cccc3cccc(c23)C(=O)N1c1nc(-c2cc3cc(Cl)cc(Cl)c3oc2=O)cs1` showed an IC50 [13] of 0.19 µM, a ΔTm [14] of 3.8 °C and an MIC [15] of 18.8 µg/mL (≈ 38 µM). For the same compound, the MIC [16] was 18.8 µg/mL (≈ 38 µM), the MIC [17] was 18.8 µg/mL (≈ 38 µM) and the MIC [18] was 18.8 µg/mL (≈ 38 µM).

`CN(C)CCN1C(=O)c2cccc3cc([N+](=O)[O-])cc(c23)C1=O` [MITONAFIDE] was tested, and the inhibition at 8 µM [19] was 99%, the T/C [20] was 187% and the inhibition at 8 µM [21] was 94%.
